From the supplement of paper PMC10307832

Key:
Assay in all cases: relative viability (nuclei count vs DMSO), 5 days (fraction); higher = more cells survive
[1] = compound: CC1=CN2C(=O)C=C(N=C2C(=C1)C(C)NC3=CC=CC=C3)N4CCOCC4 [TGX 221] + O=C(CCCCCCC(=O)Nc1ccccc1)NO [Vorinostat] (partner 1 µM)
How it was run: (§1)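 Relative viability is defined as nuclei in treated wells over nuclei in vehicle wells. Duplicate plates were run and medians reported. Lung cancer cell lines in 1536-well plates were dosed by pin tool one day after seeding, with one drug or with a fixed anchor-drug dose plus five library-drug doses (not always all listed) in √10 steps, and nuclei were counted after 5 days.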

[2] = compound: O=C(CCCCCCNC(=O)c1cnc(N(c2ccccc2)c2ccccc2)nc1)NO [Ricolinostat] + Cc1cc(Nc2cc(N3CCN(C)CC3)nc(Sc3ccc(NC(=O)C4CC4)cc3)n2)n[nH]1 [Tozasertib] (partner 0.1 µM)
How it was run: as §1

[3] = compound: CC1=CN2C(=O)C=C(N=C2C(=C1)C(C)NC3=CC=CC=C3)N4CCOCC4 [TGX 221] + Cc1nc(NC(=O)N2CCC[C@H]2C(N)=O)sc1-c1ccnc(C(C)(C)C(F)(F)F)c1 [Alpelisib] (partner 2 µM)
How it was run: as §1

[4] = compound: O=C(CCCCCCNC(=O)c1cnc(N(c2ccccc2)c2ccccc2)nc1)NO [Ricolinostat] + Cc1nc(Nc2ncc(C(=O)Nc3c(C)cccc3Cl)s2)cc(N2CCN(CCO)CC2)n1 [Dasatinib] (partner 0.075 µM)
How it was run: as §1

Cell Line	relative viability ([1]; first compound 0.08 µM)	relative viability ([1]; first compound 0.253 µM)	relative viability ([1]; first compound 0.8 µM)	relative viability ([1]; first compound 2.53 µM)	relative viability ([1]; first compound 8 µM)	relative viability ([2]; first compound 0.08 µM)	relative viability ([2]; first compound 0.253 µM)	relative viability ([2]; first compound 0.8 µM)	relative viability ([2]; first compound 2.53 µM)	relative viability ([3]; first compound 0.08 µM)	relative viability ([3]; first compound 0.253 µM)	relative viability ([3]; first compound 0.8 µM)	relative viability ([3]; first compound 2.53 µM)	relative viability ([3]; first compound 8 µM)	relative viability ([4]; first compound 0.08 µM)	relative viability ([4]; first compound 0.253 µM)	relative viability ([4]; first compound 0.8 µM)	relative viability ([4]; first compound 2.53 µM)
NCI-H460	0.654	0.632	0.655	0.691	0.595	0.549	0.46	0.558	0.186	0.386	0.295	0.274	0.167	0.137	0.319	0.459	0.444	0.42
HOP-62	0.57	0.581	0.667	0.521	0.542	0.374	0.344	0.35	0.312	0.899	0.958	0.827	1.13	1.11	0.533	0.669	0.655	0.423
NCI-H1975	0.749	0.656	0.689	0.718	0.607	0.83	0.708	0.604	0.59	0.585	0.454	0.465	0.446	0.362	0.402	0.354	0.307	0.381
NCI-H838	0.7	0.67	0.635	0.668	0.589	0.255	0.275	0.238	0.212	0.902	0.88	0.849	0.723	0.631	–	0.318	0.287	0.452
NCI-H2085	0.86	0.667	0.562	0.416	0.436	0.688	0.731	0.613	0.523	0.94	0.689	0.57	0.424	0.406	0.205	0.256	0.18	0.217
NCI-H3122	1.02	0.823	1.08	0.969	1.04	–	0.361	0.382	0.295	0.758	0.735	0.717	0.681	0.787	0.791	0.903	0.899	0.562
HCC-15	0.753	0.787	0.977	0.839	0.787	0.349	0.35	0.233	0.233	0.893	0.788	0.958	0.831	0.776	0.537	0.665	0.642	0.653
LU99A	0.431	0.514	0.588	0.356	0.529	0.258	0.276	0.224	0.239	0.524	0.443	0.494	0.513	0.57	0.461	0.583	0.465	0.512
UMC-11	0.417	0.391	0.402	0.373	0.359	0.221	0.192	0.159	0.165	0.955	0.961	0.966	1.03	1.06	0.427	0.39	0.399	0.242
NCI-H2405	0.87	0.928	0.941	0.92	0.895	0.693	0.752	0.677	0.731	0.586	0.615	0.582	0.531	0.463	0.229	0.205	0.183	0.193
NCI-H1915	0.436	0.486	0.489	0.437	0.554	0.438	0.455	0.385	0.377	1	0.999	1.08	1.1	1.01	0.277	0.29	0.275	0.231
NCI-H2228	0.462	0.324	0.599	0.575	0.302	0.37	0.235	0.237	0.141	0.693	0.468	0.551	0.523	0.403	0.432	0.591	0.457	0.382
NCI-H322M	0.865	0.876	0.839	0.872	0.718	–	0.504	0.517	0.497	0.8	0.64	0.64	0.687	0.505	–	0.275	0.26	0.255
LK-2	0.356	0.309	0.249	0.415	0.505	0.181	0.181	0.202	0.174	1.02	1.05	0.959	0.665	1	0.34	0.271	0.444	0.35
LXF-289	0.77	0.757	0.732	0.714	0.771	0.192	0.201	0.22	0.19	0.948	0.979	0.947	0.898	0.898	0.193	0.274	0.272	0.306
PC-3 [JPC-3]	0.719	0.715	0.839	0.655	0.881	–	0.84	0.851	0.771	1.01	0.978	1	0.929	0.894	–	0.905	0.993	0.903
BEN	0.588	0.572	0.523	0.501	0.547	0.539	0.558	0.534	0.517	0.982	0.942	0.899	0.899	0.88	0.269	0.322	0.279	0.213
NCI-H1355	0.614	0.577	0.591	0.629	0.558	0.6	0.558	0.483	0.477	0.711	0.67	0.673	0.584	0.54	0.588	0.69	0.645	0.62
NCI-H441	0.717	0.785	0.724	0.856	0.859	–	0.69	0.561	0.474	0.889	0.723	0.717	0.768	0.848	–	0.586	0.601	0.538

Cell Line	relative viability ([1]; first compound 0.08 µM)	relative viability ([1]; first compound 0.253 µM)	relative viability ([1]; first compound 0.8 µM)	relative viability ([1]; first compound 2.53 µM)	relative viability ([1]; first compound 8 µM)	relative viability ([2]; first compound 0.08 µM)	relative viability ([2]; first compound 0.253 µM)	relative viability ([2]; first compound 0.8 µM)	relative viability ([2]; first compound 2.53 µM)	relative viability ([3]; first compound 0.08 µM)	relative viability ([3]; first compound 0.253 µM)	relative viability ([3]; first compound 0.8 µM)	relative viability ([3]; first compound 2.53 µM)	relative viability ([3]; first compound 8 µM)	relative viability ([4]; first compound 0.08 µM)	relative viability ([4]; first compound 0.253 µM)	relative viability ([4]; first compound 0.8 µM)	relative viability ([4]; first compound 2.53 µM)
EKVX	0.767	0.758	0.841	0.608	0.539	0.354	0.373	–	0.384	0.77	0.716	0.648	0.5	0.477	0.471	0.658	0.577	0.606
NCI-H358	0.746	0.663	0.71	0.668	0.602	0.0975	0.0893	0.107	0.0955	0.723	0.75	0.828	0.85	0.726	0.164	0.168	0.146	0.187
A-427	0.872	0.876	0.817	0.847	0.856	–	0.198	0.182	0.174	1.04	1.11	1.14	0.976	1.08	–	0.621	0.583	0.471
NCI-H23	0.638	0.625	0.579	0.498	0.659	0.399	0.321	0.393	0.254	0.66	0.572	0.471	0.606	0.574	0.667	0.786	0.698	0.47
NCI-H596	0.571	0.588	0.685	0.494	0.524	0.977	1.08	0.983	0.859	0.423	0.419	0.445	0.403	0.387	0.586	0.553	0.613	0.494
NCI-H2087	0.814	0.855	0.483	0.664	0.932	–	0.253	0.164	0.168	0.978	1.13	1.13	1.12	1.31	–	0.903	0.663	0.889
HCC-78	0.518	0.449	0.428	0.338	0.362	–	0.33	0.347	0.27	0.299	0.23	–	0.2	0.175	–	0.438	0.356	0.281
NCI-H520	0.599	0.564	0.627	0.493	0.53	–	0.374	0.345	0.345	0.696	0.45	0.42	0.243	0.254	–	0.313	0.211	0.231
NCI-H727	1.09	1.06	1.14	1.09	1.19	0.448	0.704	0.734	0.563	0.591	0.436	0.484	0.557	0.513	0.352	0.479	0.47	0.452
NCI-H1734	0.675	0.67	0.787	0.702	0.764	0.241	0.29	0.231	0.292	0.619	0.509	0.562	0.448	0.448	0.463	0.516	0.51	0.571
NCI-H1993	0.821	0.611	0.742	0.788	0.724	–	0.644	0.561	0.536	0.64	0.57	0.723	0.616	0.651	–	0.558	0.61	0.671
HCC-827	0.777	0.922	0.888	0.891	0.852	0.354	0.413	0.409	0.379	0.929	0.807	0.904	0.482	0.438	0.24	0.363	0.287	0.361
NCI-H1437	0.888	0.922	0.858	0.852	0.779	0.341	0.4	0.367	0.315	0.892	0.851	0.889	0.66	0.487	0.398	0.511	0.337	0.279
EPLC-272H	0.47	0.358	0.469	0.426	0.369	0.354	0.192	0.333	0.317	0.877	0.828	0.799	–	0.62	0.308	0.387	0.336	0.212
NCI-H2126	0.832	0.741	0.768	0.615	0.717	–	0.823	0.739	0.495	0.708	0.652	0.611	0.58	0.617	–	0.618	0.616	0.492
NCI-H1666	0.958	0.963	1.06	1.06	1.1	0.544	0.591	0.489	0.358	0.855	0.742	0.735	0.645	0.654	0.804	0.875	0.827	0.622
RERF-LC-KJ	0.684	0.708	0.678	0.69	0.678	0.531	0.406	0.324	0.265	0.66	0.713	0.603	0.644	0.637	0.743	0.759	0.748	0.518
ABC-1	1.2	0.753	0.996	0.981	1.29	0.215	0.203	0.229	0.18	1.03	0.858	0.996	0.99	0.838	0.556	0.632	0.563	0.489
